What all share (type): cell-based
Experiment [1] addresses T1, human somatostatin receptor subtype 2 (Homo sapiens, UniProt P30874).
T1 construct: expressed in transfected cells
The experiment is described as follows: Functional cAMP assay for SSTR2 agonists (HTRF) in CHO-K1 cells. The conditions noted are these: CHO-K1 cells stably expressing human SST2, 20 min; for pEC50: read-out: hSST2 cAMP Avg EC50. In a few lines: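 CHO-K1 cells stably expressing receptor, plated 4 days before assay, treated 20 min at 37° C. with compound (typically 0-10,000 nM final) plus IBMX and 1.6 μM NKH477 to raise cAMP. HTRF read, 665/620 nm ratio; cAMP from standard curve, EC50 fitted.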
In general terms: cAMP levels reflect the balance of adenylyl cyclase and phosphodiesterase activity.

A further experiment has as its target T2, SST2 (Homo sapiens, UniProt P30874).
T2 construct: host or cells: PathHunter CHO-K1 SST2 cells
Description: PathHunter CHO-K1 SST2 internalization assay. The following applies: PathHunter CHO-K1 SST2, 90 min; for pEC50: read-out: Internalization EC50. In a few lines: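 PathHunter CHO-K1 SST2 cells, seeded and grown 48 h, were exposed to 11-point 1:3 dilutions of SMDC (top final 10 uM) for 90 min at 37 C, 5% CO2. Beta-Glo luminescence was read after 60 min at room temperature. Background-corrected duplicate means were fitted by four-parameter nonlinear regression to give IC50.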

The test system of experiment [2] is NCI-H524 (ATCC) human small cell lung cancer cells. In outline: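 NCI-H524 cells (5,000/well) were exposed 24 h after plating to SMDC for 2 h, 11-point two-fold series from 1 uM. After washout they grew a further 70 h. Proliferation was read by CellTiter-Glo luminescence, % inhibition taken vs untreated control, and IC50 fitted by four-parameter nonlinear regression.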

pEC50: −log10 of the molar value. Like-named read-outs stand apart in the source and are kept apart here. Starred links: 1 amine or outer side, 2 acyl side, 3 side chain; linkers in the order of their positions; H or OH if unused. Non-standard residues stand in square brackets, D forms with d. Residues, ends and D or L forms follow the SMILES beside them. *: point of attachment. X3 = Cc1cc(F)cc(-c2cnc(NCCN*)c(-c3nc4ccc(Cl)cc4[nH]3)c2N2CCC(N)CC2)c1; Dolaproine = CO[C@@H]([C@@H]1CCCN1)[C@@H](C)C(=O)O; Dil = CC[C@H](C)[C@H](NC)[C@@H](CC(=O)O)OC; PABC = O=C(OCc1ccc(N[*:1])cc1)[*:2]; Glutaryl = O=C(CCCC(=O)[*:2])[*:1]; X2 = C[C@@H](N*)[C@@H](O)c1ccccc1; Cit = NC(=O)NCCC[C@H](N)C(=O)O; NMeV = CN[C@H](C(=O)O)C(C)C; Sar = CNCC(=O)O

T1 sequence (P30874 whole entry): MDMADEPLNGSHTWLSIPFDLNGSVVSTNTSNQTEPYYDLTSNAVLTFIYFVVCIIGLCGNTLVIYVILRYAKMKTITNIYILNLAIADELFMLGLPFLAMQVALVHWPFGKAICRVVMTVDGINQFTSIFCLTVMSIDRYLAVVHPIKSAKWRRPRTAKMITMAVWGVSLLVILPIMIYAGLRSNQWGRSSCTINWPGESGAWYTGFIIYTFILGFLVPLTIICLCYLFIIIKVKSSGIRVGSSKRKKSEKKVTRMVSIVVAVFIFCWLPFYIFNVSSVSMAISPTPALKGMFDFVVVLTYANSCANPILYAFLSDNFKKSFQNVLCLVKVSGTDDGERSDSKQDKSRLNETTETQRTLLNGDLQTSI
T2 sequence (P30874 whole entry): as above

Turning to `COc1cc2cc(c1Cl)N(C)C(=O)CC(OC(=O)[C@@H](C)N(C)C(=O)CCSSCCOCCOCCOCCOCCC(=O)NCCNc1ncc(-c3cc(C)cc(F)c3)c(N3CCC(N)CC3)c1-c1nc3ccc(Cl)cc3[nH]1)[C@]1(C)OC1[C@@H](C)C1C[C@@](O)(NC(=O)O1)[C@H](OC)/C=C/C=C(\C)C2` (stereo partly drawn) [Compound 21], the pEC50 (as a rule, the EC50 on a negative log10 scale, so that one unit is a factor of ten) in experiment [1] was 9.39; at SST2, 7.76; in experiment [2] (2 h), 7.65.
For `CC[C@H](C)[C@@H]([C@@H](CC(=O)N1CCC[C@H]1[C@H](OC)[C@@H](C)C(=O)N[C@H](C)[C@@H](O)c1ccccc1)OC)N(C)C(=O)[C@@H](NC(=O)[C@H](C(C)C)N(C)C(=O)OCc1ccc(NC(=O)[C@H](C)NC(=O)[C@@H](NC(=O)CCOCCC(=O)NCCNc2ncc(-c3cc(C)cc(F)c3)c(N3CCC(N)CC3)c2-c2nc3ccc(Cl)cc3[nH]2)C(C)C)cc1C(=O)NCCN)C(C)C` [Compound 86] the same measures were 9.44, 7.82 and 8.96.
Regarding `CC[C@H](C)[C@@H]([C@@H](CC(=O)N1CCC[C@H]1[C@H](OC)[C@@H](C)C(=O)N[C@H](C)[C@@H](O)c1ccccc1)OC)N(C)C(=O)[C@@H](NC(=O)[C@H](C(C)C)N(C)C(=O)OCc1ccc(NC(=O)[C@H](CCCNC(N)=O)NC(=O)[C@@H](NC(=O)CCOCCOCCOCCOCCNCCNc2ncc(-c3cc(C)cc(F)c3)c(N3CCC(N)CC3)c2-c2nc3ccc(Cl)cc3[nH]2)C(C)C)cc1)C(C)C` [Compound 92], the figures for the pEC50 (in experiment [1]; at SST2; in experiment [2] (2 h)) were 9.25, 7.57 and 6.96, respectively.
Take `CC[C@H](C)[C@@H]([C@@H](CC(=O)N1CCC[C@H]1[C@H](OC)[C@@H](C)C(=O)N[C@H](C)[C@@H](O)c1ccccc1)OC)N(C)C(=O)[C@@H](NC(=O)[C@H](C(C)C)N(C)C(=O)OCc1ccc(NC(=O)[C@H](CCCNC(N)=O)NC(=O)[C@@H](CC(=O)CCOCCNCCNc2ncc(-c3cc(C)cc(F)c3)c(N3CCC(N)CC3)c2-c2nc3ccc(Cl)cc3[nH]2)C(C)C)cc1C(=O)NCCN)C(C)C` [Compound 87]: the results for the negative logarithm of the EC50 (pEC50) (in experiment [1]; on SST2; in experiment [2] (2 h)) were 9.40, 7.59 and 7.38, respectively.
`CCc1c2c(nc3ccc(OC(=O)NCCOCCOCCOCCOCCC(=O)NCCNc4ncc(-c5cc(C)cc(F)c5)c(N5CCC(N)CC5)c4-c4nc5ccc(Cl)cc5[nH]4)cc13)-c1cc3c(c(=O)n1C2)COC(=O)[C@]3(O)CC` [Compound 10, (19S)-10,19-diethyl-19-hydroxy-14,18-dioxo-17-oxa-3,13-diazapentacyclo[11.8.0.0^2,^11.0^4,^9.0^15,^20]henicosa-1(21),2,4(9),5,7,10,15(20)-heptaen-7-yl N-{14-[(2-{[4-(4-aminopiperidin-1-yl)-3-(6-chloro-1H-1,3-benzodiazol-2-yl)-5-(3-fluoro-5-methylphenyl)pyridin-2-yl]amino}ethyl)carbamoyl]-3,6,9,12-tetraoxatetradecan-1-yl}carbamate]: the results for the EC50 (in experiment [1] (hSST2 cAMP Avg EC50 (nM)); on SST2 (Internalization EC50 (nM))) were 0.44 nM and 3.15 nM, respectively. Further, the pEC50 in experiment [2] (2 h treatment, washout, additional 70 h, read-out: H524 EC50) is 7.76.
Regarding `CC[C@H](C)[C@@H]([C@@H](CC(=O)N1CCC[C@H]1[C@H](OC)[C@@H](C)C(=O)N[C@H](C)[C@@H](O)c1ccccc1)OC)N(C)C(=O)[C@@H](NC(=O)[C@H](C(C)C)N(C)C(=O)OCc1ccc(NC(=O)[C@H](CCCNC(N)=O)NC(=O)[C@@H](NC(=O)CN2CCN(CC(=O)NCCOCCOCCOCCOCCC(=O)NCCNc3ncc(-c4cc(C)cc(F)c4)c(N4CCC(N)CC4)c3-c3nc4ccc(Cl)cc4[nH]3)CCN(CC(=O)NCCOCCOCCOCCOCCC(=O)NCCNc3ncc(-c4cc(C)cc(F)c4)c(N4CCC(N)CC4)c3-c3nc4ccc(Cl)cc4[nH]3)CC2)C(C)C)cc1)C(C)C` [Compound 46], the pEC50 in experiment [1] was 9.27; on SST2, 7.58; in experiment [2] (2 h), 7.07.
For `CC[C@H](C)[C@@H]([C@@H](CC(=O)N1CCC[C@H]1[C@H](OC)[C@@H](C)C(=O)N[C@H](C)[C@@H](O)c1ccccc1)OC)N(C)C(=O)[C@@H](NC(=O)[C@H](C(C)C)N(C)C(=O)OCc1ccc(NC(=O)[C@H](CCCNC(N)=O)NC(=O)[C@@H](NC(=O)CCCC(=O)N(C)CC(=O)NCCNc2ncc(-c3cc(C)cc(F)c3)c(N3CCC(N)CC3)c2-c2nc3ccc(Cl)cc3[nH]2)C(C)C)cc1)C(C)C` [Compound 95] ({X3-Sar-Glutaryl}-V[Cit][PABC][NMeV]V[Dil][Dolaproine]-X2) the same measures were 9.59, 8.66 and 8.29.
Regarding `COc1cc2cc(c1Cl)N(C)C(=O)CC(OC(=O)[C@@H](C)N(C)C(=O)CCS[C@@H]1CC(=O)N(CC3CCC(C(=O)NCCCC[C@H](N)C(=O)NCCNc4ncc(-c5cc(C)cc(F)c5)c(N5CCC(N)CC5)c4-c4nc5ccc(Cl)cc5[nH]4)CC3)C1=O)[C@]1(C)OC1[C@@H](C)C1C[C@@](O)(NC(=O)O1)[C@H](OC)/C=C/C=C(\C)C2` (stereo partly drawn) [Compound 8], the results for the pEC50 (in experiment [1]; at SST2; in experiment [2] (2 h)) were 9.92, 7.63 and 6.35, respectively.
Turning to `CC[C@H](C)[C@@H]([C@@H](CC(=O)N1CCC[C@H]1[C@H](OC)[C@@H](C)C(=O)N[C@H](C)[C@@H](O)c1ccccc1)OC)N(C)C(=O)[C@@H](NC(=O)[C@H](C(C)C)N(C)C(=O)OCc1ccc(NC(=O)[C@H](CCCNC(N)=O)NC(=O)[C@@H](NC(=O)CCOCCOCCOCCOCCC(=O)NCCNc2ncc(-c3cc(C)cc(F)c3)c(N3CCC(N)CC3)c2-c2nc3ccc(Cl)cc3[nH]2)C(C)C)cc1C(=O)NCCN)C(C)C` [Compound 50], the results for the pEC50 (in experiment [1]; at SST2; in experiment [2] (2 h)) were 9.82, 8.11 and 8.24, respectively.
For `CC[C@H](C)[C@@H]([C@@H](CC(=O)N1CCC[C@H]1[C@H](OC)[C@@H](C)C(=O)N[C@H](C)[C@@H](O)c1ccccc1)OC)N(C)C(=O)[C@@H](NC(=O)[C@H](C(C)C)N(C)C(=O)OCc1ccc(NC(=O)[C@H](CCCNC(N)=O)NC(=O)[C@@H](NC(=O)CCCC(=O)N(C)CC(=O)N(C)CC(=O)N(C)CC(=O)NCCNc2ncc(-c3cc(C)cc(F)c3)c(N3CCC(N)CC3)c2-c2nc3ccc(Cl)cc3[nH]2)C(C)C)c(O[C@@H]2O[C@H](C(=O)O)[C@@H](O)[C@H](O)[C@H]2O)c1)C(C)C` [Compound 142] the same measures were 9.60, 8.36 and 7.04.
The corresponding values for `CC[C@H](C)[C@@H]([C@@H](CC(=O)N1CCC[C@H]1[C@H](OC)[C@@H](C)C(=O)N[C@H](C)[C@@H](O)c1ccccc1)OC)N(C)C(=O)[C@@H](NC(=O)[C@H](C(C)C)N(C)C(=O)OCc1ccc(NC(=O)CCOCCOCCOCCOCCC(=O)NCCNc2ncc(-c3cc(C)cc(F)c3)c(N3CCC(N)CC3)c2-c2nc3ccc(Cl)cc3[nH]2)c(O[C@@H]2O[C@H](C(=O)O)[C@@H](O)[C@H](O)[C@H]2O)c1)C(C)C` [Compound 64] are 10.00, 7.92 and 5.02.
Regarding `CC[C@H](C)[C@@H]([C@@H](CC(=O)N1CCC[C@H]1[C@H](OC)[C@@H](C)C(=O)N[C@H](C)[C@@H](O)c1ccccc1)OC)N(C)C(=O)[C@@H](NC(=O)[C@H](C(C)C)N(C)C(=O)OCc1ccc(NC(=O)[C@H](CCCNC(N)=O)NC(=O)[C@@H](NC(=O)CN2CCN(CC(=O)O)CCN(CC(=O)NCCOCCC(=O)NCCNc3ncc(-c4cc(C)cc(F)c4)c(N4CCC(N)CC4)c3-c3nc4ccc(Cl)cc4[nH]3)CC2)C(C)C)cc1)C(C)C` [Compound 55], the pEC50 was 9.77 in experiment [1], 8.08 at SST2 and 7.46 in experiment [2] (2 h).

The values above are taken from patent US12134610B2, “Somatostatin subtype-2 receptor (SST2R) targeted therapeutics and uses thereof” (priority 2022, dated 2024).
